Each structure is given as a SMILES string. Converted amounts (≈) assume the structure as drawn. Where a SMILES comes first, the peptide text is derived from it. Bridges are numbered along the chain shown (N, C = ends). [ ]: non-standard residue; d: D form. The star is where a group is joined. X1 = O=C(c1ncc(Cl)cc1Cl)*; Dab = NCC[C@H](N)C(=O)O; Abu = CC[C@H](N)C(=O)O; Dap = NC[C@H](N)C(=O)O

The values below come from patent US11225505B2, “Antimicrobial polymyxin derivative compounds” (MONASH UNIVERSITY, priority 2015, dated 2022).

For assay [1], the system named is Klebsiella pneumoniae Kp BM1. The format is cell-based. The note with it: Kp BM1. In short, it runs like this: (§1)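 Lipopeptide TFA salts were serially diluted in cation-adjusted Mueller-Hinton broth, inoculated with polymyxin-susceptible Gram-negative bacteria and scored for MIC according to CLSI guidance (M100-S24). Polymyxin B sulphate was included as comparator.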

Assay [2] has as its system Acinetobacter baumannii FADDI-AB034. The format is cell-based. The note with it: FADDI-AB034. In short, it runs like this: as §1
For assay [3], the system named is Pseudomonas aeruginosa FADDI-PA038. The format is cell-based. The note with it: FADDI-PA038. In short, it runs like this:
as §1

Assay [4] deals with Pseudomonas aeruginosa FADDI-PA01. It is filed as cell-based. The settings on record: FADDI-. The gist of the method:
as §1

Assay [5] relates to Klebsiella pneumoniae FADDI-KP022. The format is cell-based. The settings on record: FADDI-KP022. In short, it runs like this:
as §1

In assay [6] the test system is Acinetobacter baumannii ATCC 17978. The format is cell-based. The settings on record: ATCC 17978. The gist of the method: as §1
The test system of assay [7] is Enterobacter cloacae FADDI-EC001. The format is cell-based. The settings on record: FADDI-EC001. In short, it runs like this:
as §1

Assay [8] has as its system Pseudomonas aeruginosa FADDI-PA022. The format is cell-based. The settings on record: FADDI-PA022. The gist of the method:
as §1

For assay [9], the system named is Pseudomonas aeruginosa ATCC 27853. The format is cell-based. The note with it: ATCC 27853. In short, it runs like this:
as §1

Assay [10] deals with Acinetobacter baumannii FADDI-AB030. As to the kind of experiment: microbe, parasite or virus in culture. It is filed as cell-based. The note with it: FADDI-AB030. The gist of the method: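 Lipopeptide TFA salts tested against the multidrug-resistant clinical isolate by CLSI (M100-S24) broth microdilution in cation-adjusted Mueller-Hinton broth, with polymyxin B sulphate as control; MIC read.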

Assay [11] concerns A. baumannii FADDI-AB030. As to the kind of experiment: In vivo efficacy in a neutropenic mouse lung infection model. Also on record: species or system Acinetobacter baumannii. The settings on record: 24 h. The protocol: The in vivo efficacy of several compounds was examined in a neutropenic mouse lung infection model against the clinical isolate A. baumannii FADDI-AB030. This Gram-negative isolate is highly multi drug-resistant as illustrated in Table 7.
FADDI-AB030 was subcultured on nutrient agar plates from the −80° C. stock. One colony of the bacterial strain was dispersed in 10-mL CAMHB and incubated overnight. On day 2, an aliquot (0.2 mL) of overnight culture suspension was dispersed in 20-mL CAMHB and incubated for 1.5-2.5 h for production of early log-phase growth bacterial culture. The bacteria in the early log-phase growth suspension were concentrated by centrifugation (3,220 g for 10 min) and re-suspended in sterile 0.9% saline for inoculation into mice. The bacterial cell concentration (colony forming unit [CFU]/mL) in saline was estimated by determining the optical density (OD) of the suspension at 600 nm, and confirmed by plating the suspension on nutrient agar plates. […]
Lung infection was produced as follows. […] Bacterial burdens in lungs were determined at 2 h after inoculation (untreated controls) and 24 h later (untreated controls and compound-treated mice). […] The bacterial colonies on the agar plate were counted and the log10 CFU/lung in each mouse was calculated (FIG. 1). […]

For `CC[C@@H]1NC(=O)[C@@H](CC(C)C)NC(=O)[C@H](CCN)NC(=O)[C@@H](NC(=O)[C@H](CN)NC(=O)[C@@H](NC(=O)[C@H](CCN)NC(=O)c2ncc(Cl)cc2Cl)[C@@H](C)O)CCNC(=O)[C@H]([C@@H](C)O)NC(=O)[C@H](CCN)NC(=O)[C@H](CCN)NC1=O` [Compound 1] (X1-[Dab]T[Dap][Dab][Dab][dL][Abu][Dab][Dab]T; lactam 4-C), the Minimum inhibitory concentration was 0.25 mg/L (≈ 0.215 µM) in assay [1]; 2 mg/L (≈ 1.72 µM) in [2]; 1 mg/L (≈ 0.861 µM) in assay [3]; 0.5 mg/L (≈ 0.431 µM) in assay [4]; less than 0.125 mg/L in assay [5]; 2 mg/L (≈ 1.72 µM) in [6]. The Minimum inhibitory concentration is less than 0.125 mg/L in assay [7], 1 mg/L (≈ 0.861 µM) in assay [8], 0.5 mg/L (≈ 0.431 µM) in assay [9] and 1 mg/L (≈ 0.861 µM) in assay [10]. The “in vivo antibacterial efficacy (bacterial burden in lung, FIG. 1) compared with polymyxin B at the same dose” value in assay [11] (45 mg/kg total, neutropenic mice) was “improved in vivo antibacterial efficacy”. The “bacterial cells in the lung (FIG. 2)” value in assay [11] (total doses of 90 and 180 mg/kg) is “no longer detectable in the lung”.
